Experimental data reported in US10981891B2, “Antibacterial compounds and uses thereof” (priority 2016, dated 2021).
Converted amounts (≈) assume the structure as drawn. Like-named read-outs stand apart in the source and are kept apart here.

System: M. tuberculosis H37Rv (ATCC 27294)
Experiment: Microplate Alamar Blue assay (MABA), MIC against replicating M. tuberculosis H37Rv
Type: cell-based
Details: Mycobacterium tuberculosis, 168 h, read-out: M. tuberculosis MIC
[1] = H37Rv, MABA, 7H12 media, 7 days at 37° C., MIC = lowest concentration reducing fluorescence by 90% relative to controls

COc1nc2ccc(C#N)cc2cc1C(c1cccc2c1OCCO2)C(O)(CCN(C)C)c1cc(SC)nc(SC)c1 (stereo not drawn) [Example 90, 3-(2-(2,6-Bis(methylthio)pyridin-4-yl)-1-(2,3-dihydrobenzo[b][1,4]dioxin-5-yl)-4-(dimethylamino)-2-hydroxybutyl)-2-methoxyquinoline-6-carbonitrile]
MIC [1]: 0.01 µg/mL (≈ 0.0166 µM)

COc1cc(C(O)(CCN(C)C)C(c2cc3cc(C#N)ccc3nc2OC)c2cccc(C)c2F)cc(OC)n1 (stereo not drawn) [Example 86, 3-(2-(2,6-Dimethoxypyridin-4-yl)-4-(dimethylamino)-1-(2-fluoro-3-methylphenyl)-2-hydroxybutyl)-2-methoxyquinoline-6-carbonitrile]
MIC [1]: < 0.02 µg/mL

CNCCC(O)(c1cc(OC)nc(OC)c1)C(c1ccc(C)s1)c1cc2cc(C#N)ccc2nc1OC (stereo not drawn) [Example 78, 3-(2-(2,6-Dimethoxypyridin-4-yl)-2-hydroxy-4-(methylamino)-1-(5-methylthiophen-2-yl)butyl)-2-methoxyquinoline-6-carbonitrile]
MIC [1]: 0.09 µg/mL (≈ 0.174 µM)

CCOc1cc(C(O)(CCN(C)C)C(c2cc3cc(Br)ccc3nc2OC)c2ccnc(OC)c2OC)cc(OC)n1 (stereo not drawn) [Example 20, 1-(6-Bromo-2-methoxyquinolin-3-yl)-1-(2,3-dimethoxypyridin-4-yl)-4-(dimethylamino)-2-(2-ethoxy-6-methoxypyridin-4-yl)butan-2-ol]
MIC [1]: < 0.02 µg/mL

COc1cc(C(O)(CCN(C)C)C(c2cc3cc(Br)ccc3nc2OC)c2cccc(C)c2F)cc(OC(F)F)n1 (stereo not drawn) [Example 54, 1-(6-Bromo-2-methoxyquinolin-3-yl)-2-(2-(difluoromethoxy)-6-methoxypyridin-4-yl)-4-(dimethylamino)-1-(2-fluoro-3-methylphenyl)butan-2-ol]
MIC [1]: 0.01 µg/mL (≈ 0.0158 µM)

CCCOc1cc(C(O)(CCN(C)C)C(c2cc3cc(Br)ccc3nc2OC)c2ccnc(OC)c2OC)cc(OC)n1 (stereo not drawn) [Example 28, 1-(6-Bromo-2-methoxyquinolin-3-yl)-1-(2,3-dimethoxypyridin-4-yl)-4-(dimethylamino)-2-(2-methoxy-6-propoxypyridin-4-yl)butan-2-ol]
MIC [1]: 0.01 µg/mL (≈ 0.0153 µM)

COc1cc(C(O)(CCN(C)C)C(c2cccc(F)c2)c2cc3cc(Br)ccc3nc2OC)cc(OC)n1 (stereo not drawn) [Example 39, 1-(6-Bromo-2-methoxyquinolin-3-yl)-2-(2,6-dimethoxypyridin-4-yl)-4-(dimethylamino)-1-(3-fluorophenyl)butan-2-ol]
MIC [1]: < 0.02 µg/mL

COc1cc(C(O)(CCN(C)C)C(c2cc3cc(Br)ccc3nc2OC)c2cccc(OC)c2F)cc(OC(C)C)n1 (stereo not drawn) [Example 16, 1-(6-Bromo-2-methoxyquinolin-3-yl)-4-(dimethylamino)-1-(2-fluoro-3-methoxyphenyl)-2-(2-isopropoxy-6-methoxypyridin-4-yl)butan-2-ol]
MIC [1]: < 0.02 µg/mL

CNCCC(O)(c1cc(OC)nc(OC)c1)C(c1cccc(F)c1)c1cc2cc(C#N)ccc2nc1OC (stereo not drawn) [Example 97, 3-(2-(2,6-Dimethoxypyridin-4-yl)-1-(3-fluorophenyl)-2-hydroxy-4-(methylamino)butyl)-2-methoxyquinoline-6-carbonitrile]
MIC [1]: 0.01 µg/mL (≈ 0.0194 µM)

COc1nc2ccc(C#N)cc2cc1C(c1cccc(C)c1F)C(O)(CCN(C)C)c1cc(SC)nc(SC)c1 (stereo not drawn) [Example 89, 3-(2-(2,6-Bis(methylthio)pyridin-4-yl)-4-(dimethylamino)-1-(2-fluoro-3-methylphenyl)-2-hydroxybutyl)-2-methoxyquinoline-6-carbonitrile]
MIC [1]: 0.02 µg/mL (≈ 0.0347 µM)

COc1nc2ccc(C#N)cc2cc1C(c1cccc(F)c1)C(O)(CCN(C)C)c1cc2ccccc2o1 (stereo not drawn) [Example 73, 3-(2-(Benzofuran-2-yl)-4-(dimethylamino)-1-(3-fluorophenyl)-2-hydroxybutyl)-2-methoxyquinoline-6-carbonitrile]
MIC [1]: 0.08 µg/mL (≈ 0.157 µM)

COc1cc(C(c2cc3cc(Br)ccc3nc2OC)C(O)(CCN(C)C)c2cccc3ccoc23)cc(OC(C)C)n1 (stereo not drawn) [Example 21, 2-(Benzofuran-7-yl)-1-(6-bromo-2-methoxyquinolin-3-yl)-4-(dimethylamino)-1-(2-isopropoxy-6-methoxypyridin-4-yl)butan-2-ol]
MIC [1]: < 0.02 µg/mL

COc1cc(C(O)(CCN(C)C)C(c2ccc(C)s2)c2cc3cc(Br)ccc3nc2OC)cc(OC)n1 (stereo not drawn) [Example 11, 1-(6-Bromo-2-methoxyquinolin-3-yl)-2-(2,6-dimethoxypyridin-4-yl)-4-(dimethylamino)-1-(5-methylthiophen-2-yl)butan-2-ol]
MIC [1]: < 0.02 µg/mL

COc1cc(C(O)(CCN(C)C)C(c2cc3cc(Br)ccc3nc2OC)c2ccnc(OC)c2OC)cc(OC2CCC2)n1 (stereo not drawn) [Example 30, 1-(6-Bromo-2-methoxyquinolin-3-yl)-2-(2-cyclobutoxy-6-methoxypyridin-4-yl)-1-(2,3-dimethoxypyridin-4-yl)-4-(dimethylamino)butan-2-ol]
MIC [1]: < 0.004 µg/mL

COc1cc(C(O)(CCN(C)C)C(c2cc3cc(C#N)ccc3nc2OC)c2cccc(C)c2F)cc(OC(F)F)n1 (stereo not drawn) [Example 88, 3-(2-(2-(Difluoromethoxy)-6-methoxypyridin-4-yl)-4-(dimethylamino)-1-(2-fluoro-3-methylphenyl)-2-hydroxybutyl)-2-methoxyquinoline-6-carbonitrile]
MIC [1]: 0.01 µg/mL (≈ 0.0172 µM)

COc1cccc(C(c2cc3cc(Br)ccc3nc2OC)C(O)(CCN(C)C)c2cc(SC)nc(SC)c2)c1F (stereo not drawn) [Example 45, 2-(2,6-Bis(methylthio)pyridin-4-yl)-1-(6-bromo-2-methoxyquinolin-3-yl)-4-(dimethylamino)-1-(2-fluoro-3-methoxyphenyl)butan-2-ol]
MIC [1]: < 0.02 µg/mL

CNCCC(O)(c1cc(OC)nc(OC)c1)C(c1cc2cc(C#N)ccc2nc1OC)c1cccc2c1OCCO2 (stereo not drawn) [Example 93, 3-(1-(2,3-Dihydrobenzo[b][1,4]dioxin-5-yl)-2-(2,6-dimethoxypyridin-4-yl)-2-hydroxy-4-(methylamino)butyl)-2-methoxyquinoline-6-carbonitrile]
MIC [1]: 0.01 µg/mL (≈ 0.018 µM)

COc1cc(C(O)(CCN(C)C)C(c2cc3cc(Br)ccc3nc2OC)c2ccnc(OC)c2OC)cc(OC(C)C)n1 (stereo not drawn) [Example 18, 1-(6-Bromo-2-methoxyquinolin-3-yl)-1-(2,3-dimethoxypyridin-4-yl)-4-(dimethylamino)-2-(2-isopropoxy-6-methoxypyridin-4-yl)butan-2-ol]
MIC [1]: < 0.01 µg/mL

COc1nc2ccc(Br)cc2cc1C(c1ccnc(OC)c1OC)C(O)(CCN(C)C)c1cc2ccccc2o1 (stereo not drawn) [Example 7, 2-(Benzofuran-2-yl)-1-(6-bromo-2-methoxyquinolin-3-yl)-1-(2,3-dimethoxypyridin-4-yl)-4-(dimethylamino)butan-2-ol]
MIC: 0.03 µg/mL (≈ 0.0495 µM)

COc1nc2ccc(Br)cc2cc1C(c1ccccc1)C(O)(CCN(C)C)c1cccc2c1CCC2 (stereo not drawn) [Example 40, 1-(6-Bromo-2-methoxyquinolin-3-yl)-2-(2,3-dihydro-1H-inden-4-yl)-4-(dimethylamino)-1-phenylbutan-2-ol]
MIC: 0.07 µg/mL (≈ 0.128 µM)

COc1cc(C(O)(CCN(C)C)C(c2cc3cc(C#N)ccc3nc2OC)c2ccnc(OC)c2OC)cc(OC(F)F)n1 (stereo not drawn) [Example 83, 3-(2-(2-(Difluoromethoxy)-6-methoxypyridin-4-yl)-1-(2,3-dimethoxypyridin-4-yl)-4-(dimethylamino)-2-hydroxybutyl)-2-methoxyquinoline-6-carbonitrile]
MIC [1]: < 0.02 µg/mL

COc1cc(C(O)(CCN(C)C)C(c2cccc(F)c2)c2cc3cc(C#N)ccc3nc2OC)cc(OC)n1 (stereo not drawn) [Example 80, 3-(2-(2,6-Dimethoxypyridin-4-yl)-4-(dimethylamino)-1-(3-fluorophenyl)-2-hydroxybutyl)-2-methoxyquinoline-6-carbonitrile]
MIC [1]: 0.03 µg/mL (≈ 0.0565 µM)

CCOc1cc(C(c2cc3cc(Br)ccc3nc2OC)C(O)(CCN(C)C)c2cccc3ccoc23)cc(OCC)n1 (stereo not drawn) [Example 12, 2-(Benzofuran-7-yl)-1-(6-bromo-2-methoxyquinolin-3-yl)-1-(2,6-diethoxypyridin-4-yl)-4-(dimethylamino)butan-2-ol]
MIC [1]: < 0.01 µg/mL

COc1nc2ccc(Br)cc2cc1C(c1ccnc(OC)c1OC)C(O)(CCN(C)C)c1cc(SC)nc(SC)c1 (stereo not drawn) [Example 46, 2-(2,6-Bis(methylthio)pyridin-4-yl)-1-(6-bromo-2-methoxyquinolin-3-yl)-1-(2,3-dimethoxypyridin-4-yl)-4-(dimethylamino)butan-2-ol]
MIC [1]: < 0.02 µg/mL

CCOc1cc(C(O)(CCN(C)C)C(c2cccc(C)c2)c2cc3cc(Cl)ccc3nc2OC)cc(OCC)n1 (stereo not drawn) [Example 32, 1-(6-Chloro-2-methoxyquinolin-3-yl)-2-(2,6-diethoxypyridin-4-yl)-4-(dimethylamino)-1-(m-tolyl)butan-2-ol]
MIC [1]: 0.02 µg/mL (≈ 0.0355 µM)

COc1cc(C(O)(CCN(C)C)C(c2cc3cc(Br)ccc3nc2OC)c2ccnc(OC)c2OC)cc(OC(F)F)n1 (stereo not drawn) [Example 51, 1-(6-Bromo-2-methoxyquinolin-3-yl)-2-(2-(difluoromethoxy)-6-methoxypyridin-4-yl)-1-(2,3-dimethoxypyridin-4-yl)-4-(dimethylamino)butan-2-ol]
MIC [1]: < 0.004 µg/mL

CCOc1cc(C(O)(CCN(C)C)C(c2cc(OC)nc(OC)c2)c2cc3cc(Br)ccc3nc2OC)cc(OC(C)C)n1 (stereo not drawn) [Example 24, 1-(6-Bromo-2-methoxyquinolin-3-yl)-1-(2,6-dimethoxypyridin-4-yl)-4-(dimethylamino)-2-(2-ethoxy-6-isopropoxypyridin-4-yl)butan-2-ol]
MIC [1]: < 0.02 µg/mL

COc1cc(C(O)(CCN(C)C)C(c2cc3cc(Br)ccc3nc2OC)c2cc(C)sc2C)cc(OC)n1 (stereo not drawn) [Example 33, 1-(6-Bromo-2-methoxyquinolin-3-yl)-2-(2,6-dimethoxypyridin-4-yl)-4-(dimethylamino)-1-(2,5-dimethylthiophen-3-yl)butan-2-ol]
MIC [1]: < 0.02 µg/mL

COc1nc2ccc(Br)cc2cc1C(c1cccc(C)c1F)C(O)(CCN(C)C)c1cc(SC)nc(SC)c1 (stereo not drawn) [Example 55, 2-(2,6-Bis(methylthio)pyridin-4-yl)-1-(6-bromo-2-methoxyquinolin-3-yl)-4-(dimethylamino)-1-(2-fluoro-3-methylphenyl)butan-2-ol]
MIC [1]: < 0.004 µg/mL

COc1cc(C(O)(CCN(C)C)C(c2cc3cc(Br)ccc3nc2OC)c2ccnc(OC)c2OC)c(OC)c(OC)n1 (stereo not drawn) [Example 61, 1-(6-Bromo-2-methoxyquinolin-3-yl)-1-(2,3-dimethoxypyridin-4-yl)-4-(dimethylamino)-2-(2,3,6-trimethoxypyridin-4-yl)butan-2-ol]
MIC [1]: 0.02 µg/mL (≈ 0.0304 µM)
